Measurements reported in patent EP1383722B1, “INHIBITION OF POPCORN POLYMER GROWTH” (BAKER HUGHES INCORPORATED, priority 2001, dated 2002).

Assay: Popcorn Polymer Glass Tube Reaction Test Method
Conditions: total additive 250 ppm, 60°C, 14 to 28 days
Procedure: The Popcorn Polymer Glass Tube Reaction Method allows for the evaluation of many samples at once, and may be described as follows: • 1. Obtain butadiene popcorn polymer "seeds" (in the Examples of this invention the seeds were obtained in 1996 from a BD holding tank). Activate popcorn polymer "seeds" overnight with a 150 watt flood lamp. The "seeds" are firstplaced in a petri dish and covered. Then they are exposed to white light from the lamp for approximately 20 hours. The lamp is positioned 12 inches (30.5 cm) above the dish. • 2. To glass reaction vessels add 1 ml of deionized water. To the glass reaction vessel and water place approximately 0.6200 gms of BD popcorn "seed". Add inhibitor, if any, into the water and seal the reaction vessel with a TEFLON adapter. Completely seal off the adapter by use of a metal adapter plug. Using a gas-tight syringe, inject 15mls of butadiene monomer into the reaction vessel by way of a septum port located at the top of the TEFLON adapter. • 3. Next, place the reaction vessel containing BD popcorn "seed" and butadiene monomer into a block incubator bath which is capable of maintaining a constant temperature of 60°C. Allow the test to run for 14 to 28 days. Remove the reaction vessel from the incubator bath. • 4. Vent the BD out of the vessel by slowly opening the metal adapter plug. Slowly open the reaction vessel and decant the water/BD mixture. Rinse the wet polymer with n-heptane until most of the n-heptane is essentially clear of haze. Blow dry nitrogen into the reaction vessel to further dry the poly-mer. Remove the popcorn polymer carefully with tweezers and spatula and place in a 100 ml beaker. Wash the popcorn polymer material three times with 30 ml aliquots of n-heptane. • 5. Transfer the popcorn polymer sample into a petri dish. Place dish into a vacuum oven. Dry sample at 212°F (100°C) under a 30 mmHg vacuum for 30 minutes. Remove dish and sample from oven. Place dish and popcorn polymer sample in a desiccator. Cool for 1 hour and record the weight of the popcorn polymer. The weight of new polymer growth can be obtained by subtracting the original seed weight from the total popcom polymer weight.

SMILES | %Inhibition (Table II) [%] | Polymer formed mg/15ml (Table II) [mg/15ml] | %Inhibition (Table III) [%] | Polymer formed mg/15ml (Table III) [mg/15ml]
CC1(C)CCCC(C)(C)N1[O] [compound 7, 2,2,6,6-tetramethyl-1-piperidinyloxyl] | 50 | 550 | 83 | 80
CC(C)(C)c1cc(O)ccc1O [compound 8, tert-butyl hydroquinone] | 30 | 770 | – | –
COc1cc(C(C)(C)C)c(O)c(C(C)(C)C)c1 [compound 19, 2,6-di-tert-butyl-4-methoxyphenol] | – | – | 77 | 108
